Read-outs that look alike come from different tables or passages of the source. Positions of bridges follow the written chain, without caps; N, C: chain ends. Residues, ends and D or L forms follow the SMILES beside them.
Columns and labels:
human IgG1 = molecular target: T1, human IgG1 (Homo sapiens, UniProt P01857); type: binding; conditions: Table 9; immobilized peptide, 5.0 mg/ml resin load
T1 construct: all human subtypes derived from myeloma patients; purchased Calbiochem 400120; host or cells: myeloma patients
T1 sequence (P01857 1-330 isoform P01857-1): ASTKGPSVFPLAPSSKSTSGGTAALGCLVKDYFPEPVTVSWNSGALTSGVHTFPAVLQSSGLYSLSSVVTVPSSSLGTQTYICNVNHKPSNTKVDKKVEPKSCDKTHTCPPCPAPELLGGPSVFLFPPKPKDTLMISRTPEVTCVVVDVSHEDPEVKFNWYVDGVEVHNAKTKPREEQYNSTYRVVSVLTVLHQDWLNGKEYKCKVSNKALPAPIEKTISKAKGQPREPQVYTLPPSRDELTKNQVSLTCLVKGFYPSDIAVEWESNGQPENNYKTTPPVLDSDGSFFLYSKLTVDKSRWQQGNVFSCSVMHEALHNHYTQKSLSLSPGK
How it was run: (§1)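 Percent bound = control mass minus unbound mass, with unbound IgG read at A280 after 1–1.5 h room-temperature incubation with the peptide resin in PBST pH 7.2 or TBST pH 7.5. Bound IgG was eluted 30–60 min with 0.1 M citrate pH 4.0 and/or bicarbonate pH 8.5. Recovery is given as percent of total load.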

human IgG2 = molecular target: T2, human IgG2 (Homo sapiens, UniProt P01859); type: binding; conditions: Table 9; immobilized peptide, 5.0 mg/ml resin load
T2 construct: all human subtypes derived from myeloma patients; purchased Calbiochem 400122; host or cells: myeloma patients
T2 sequence (P01859 1-326 isoform P01859-1): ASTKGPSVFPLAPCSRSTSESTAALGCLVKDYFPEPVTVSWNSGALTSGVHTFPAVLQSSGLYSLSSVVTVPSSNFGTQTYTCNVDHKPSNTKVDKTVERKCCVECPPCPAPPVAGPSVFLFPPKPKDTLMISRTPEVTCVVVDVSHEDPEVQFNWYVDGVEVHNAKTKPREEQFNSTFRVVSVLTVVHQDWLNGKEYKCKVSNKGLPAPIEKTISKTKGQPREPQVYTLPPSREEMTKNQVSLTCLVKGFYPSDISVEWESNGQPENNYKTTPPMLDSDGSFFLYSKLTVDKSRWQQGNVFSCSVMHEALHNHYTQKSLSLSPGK
How it was run: (§2)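 Read-out is A280 of unbound IgG (1.4 mg/ml extinction coefficient), with percent bound derived against non-filtered or negative controls. Targets were incubated with immobilized peptides in PBST or TBST for 1-1.5 h at room temperature. Hydrolyzed Sepharose and immobilized Protein A serve as negative and positive controls.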

bovine IgG = type: binding; conditions: Table 11; unfractionated IgG
How it was run: (§3)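 Steps: dilute IgG in PBST or TBST; incubate with immobilized peptide 1-1.5 h, RT; collect unbound by centrifugation; measure A280; wash three times; elute with 0.1 M sodium bicarbonate pH 8.5 and/or 0.1 M sodium citrate pH 4.0 for 30-60 min and quantitate.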

mouse IgG = type: binding; conditions: Table 11; unfractionated IgG
How it was run: as §3

goat IgG = type: binding; conditions: Table 11; unfractionated IgG
How it was run: as §3

human IgG = type: binding; conditions: Table 11; unfractionated IgG
How it was run: as §3

IgG3 = IgG3 (Homo sapiens, UniProt P01860); type: binding; design: all human subtypes derived from myeloma patients; purchased Calbiochem 400124; host or cells: myeloma patients; conditions: Table 9; immobilized peptide, 5.0 mg/ml resin load
Chain of IgG3 (P01860 1-377 isoform P01860-1): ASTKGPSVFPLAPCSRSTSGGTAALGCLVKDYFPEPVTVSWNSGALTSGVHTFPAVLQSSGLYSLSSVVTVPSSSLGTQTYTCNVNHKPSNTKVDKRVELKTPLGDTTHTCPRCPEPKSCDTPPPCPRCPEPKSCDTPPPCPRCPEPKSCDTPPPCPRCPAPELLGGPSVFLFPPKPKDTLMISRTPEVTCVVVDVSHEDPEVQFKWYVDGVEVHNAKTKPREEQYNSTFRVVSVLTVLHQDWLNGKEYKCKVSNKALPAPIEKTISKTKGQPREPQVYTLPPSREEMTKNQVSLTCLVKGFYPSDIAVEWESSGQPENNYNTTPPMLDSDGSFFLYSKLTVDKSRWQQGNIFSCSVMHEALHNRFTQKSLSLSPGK
How it was run: as §1

IgG4 = IgG4 (Homo sapiens, UniProt P01861); type: binding; design: all human subtypes derived from myeloma patients; purchased Calbiochem 400126; host or cells: myeloma patients; conditions: Table 9; immobilized peptide, 5.0 mg/ml resin load
Chain of IgG4 (P01861 1-327 isoform P01861-1): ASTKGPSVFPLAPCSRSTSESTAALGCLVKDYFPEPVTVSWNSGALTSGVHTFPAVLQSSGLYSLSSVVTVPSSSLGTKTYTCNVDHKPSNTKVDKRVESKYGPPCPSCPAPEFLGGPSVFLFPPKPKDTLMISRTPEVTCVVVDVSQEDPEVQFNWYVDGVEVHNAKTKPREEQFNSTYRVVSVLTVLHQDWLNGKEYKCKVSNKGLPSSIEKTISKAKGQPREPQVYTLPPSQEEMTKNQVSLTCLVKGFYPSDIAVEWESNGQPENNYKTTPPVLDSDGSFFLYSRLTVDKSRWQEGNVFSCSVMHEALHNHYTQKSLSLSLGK
How it was run: as §2

human plasma IgG3 = molecular target: T3, human plasma IgG3 (Homo sapiens, UniProt P01860); assay: Fluorescence anisotropy binding, Oregon Green labeled peptide
T3 construct: the individual human plasma IgG isoforms: IgG1, IgG2, IgG3, or IgG4; purchased Calbiochem; host or cells: human plasma
T3 sequence (P01860 1-377 isoform P01860-1): as the sequence (P01860 1-377 isoform P01860-1) above

human plasma IgG4 = molecular target: T4, human plasma IgG4 (Homo sapiens, UniProt P01861); assay: as above
T4 construct: the individual human plasma IgG isoforms: IgG1, IgG2, IgG3, or IgG4; purchased Calbiochem; host or cells: human plasma
T4 sequence (P01861 1-327 isoform P01861-1): as the sequence (P01861 1-327 isoform P01861-1) above
How it was run: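 Oregon Green-labeled peptides binding to human plasma IgG isoforms measured by fluorescence anisotropy. Buffers with 0.01% Tween 20: 10 mM sodium citrate pH 4.0 with 500 mM NaCl; Tris-HCl pH 7.5 with 500 mM NaCl; 10 mM sodium bicarbonate pH 9.5 with or without 500 mM NaCl.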

human plasma IgG2 = molecular target: T5, human plasma IgG2 (Homo sapiens, UniProt P01859); assay: as above
T5 construct: the individual human plasma IgG isoforms: IgG1, IgG2, IgG3, or IgG4; purchased Calbiochem; host or cells: human plasma
T5 sequence (P01859 1-326 isoform P01859-1): as the sequence (P01859 1-326 isoform P01859-1) above

[1] = 10 mM Sodium Bicarbonate, 500 mM Sodium Chloride, pH 9.5, read-out: KD (μM) IgG3 pH 9.5 + salt
[2] = 10 mM Sodium Bicarbonate, pH 9.5, read-out: KD (μM) IgG3 pH 9.5 − salt
[3] = 10 mM Sodium Citrate, 500 mM Sodium Chloride, pH 4.0, read-out: KD (μM) IgG3 pH 4.0 + salt
[4] = 10 mM Sodium Citrate, pH 4.0, read-out: KD (μM) IgG3 pH 4.0 − salt
[5] = 10 mM Tris-HCl, pH 7.5, read-out: KD (μM) IgG3 pH 7.5 − salt
[6] = TBS, 0.01% Tween 20, pH 7.5, read-out: KD (μM) IgG3 TBS
[7] = 10 nM Tris-HCl, 500 mM Sodium Chloride, pH 7.5, read-out: KD (μM) IgG4 pH 7.5 + salt
[8] = 10 mM Sodium Bicarbonate, 500 mM Sodium Chloride, pH 9.5, read-out: KD (μM) IgG4 pH 9.5 + salt
[9] = 10 mM Sodium Bicarbonate, pH 9.5, read-out: KD (μM) IgG4 pH 9.5 − salt
[10] = 10 mM Sodium Citrate, 500 mM Sodium Chloride, pH 4.0, read-out: KD (μM) IgG4 pH 4.0 + salt
[11] = 10 mM Sodium Citrate, pH 4.0, read-out: KD (μM) IgG4 pH 4.0 − salt
[12] = 10 mM Tris-HCl, pH 7.5, read-out: KD (μM) IgG4 pH 7.5 − salt
[13] = TBS, 0.01% Tween 20, pH 7.5, read-out: KD (μM) IgG4 TBS
[14] = 10 nM Tris-HCl, 500 mM Sodium Chloride, pH 7.5, read-out: KD (μM) IgG2 pH 7.5 + salt
[15] = 10 mM Sodium Bicarbonate, 500 mM Sodium Chloride, pH 9.5, read-out: KD (μM) IgG2 pH 9.5 + salt
[16] = 10 mM Sodium Bicarbonate, pH 9.5, read-out: KD (μM) IgG2 pH 9.5 − salt
[17] = 10 mM Sodium Citrate, 500 mM Sodium Chloride, pH 4.0, read-out: KD (μM) IgG2 pH 4.0 + salt
[18] = 10 mM Sodium Citrate, pH 4.0, read-out: KD (μM) IgG2 pH 4.0 − salt
[19] = 10 mM Tris-HCl, pH 7.5, read-out: KD (μM) IgG2 pH 7.5 − salt
[20] = TBS, 0.01% Tween 20, pH 7.5, read-out: KD (μM) IgG2 TBS

Row | % IgG Capture - Batch Binding, Human IgG1 (human IgG1) | % IgG Capture - Batch Binding, Human IgG2 (human IgG2) | % IgG Capture - Batch Binding, Bovine IgG (bovine IgG) | % IgG Capture - Batch Binding, Mouse IgG (mouse IgG) | % IgG Capture - Batch Binding, Goat IgG (goat IgG) | % IgG Capture - Batch Binding, Human IgG (human IgG) | % IgG Capture - Batch Binding, Human IgG3 (IgG3) | % IgG Capture - Batch Binding, Human IgG4 (IgG4) | Kd (human plasma IgG3; [1]) | Kd (human plasma IgG3; [2]) | Kd (human plasma IgG3; [3]) | Kd (human plasma IgG3; [4]) | Kd (human plasma IgG3; [5]) | Kd (human plasma IgG3; [6]) | Kd (human plasma IgG4; [7]) | Kd (human plasma IgG4; [8]) | Kd (human plasma IgG4; [9]) | Kd (human plasma IgG4; [10]) | Kd (human plasma IgG4; [11]) | Kd (human plasma IgG4; [12]) | SMILES | also measured
1 | 21% | 2% | 0% | 0% | 0% | 19% | 85% | 4% | > 10 µM | > 10 µM | 1 to 2 µM | 1 ± 0.26 µM | > 10 µM | > 10 µM | > 10 µM | > 10 µM | > 10 µM | > 10 µM | > 10 µM | > 10 µM | CC(=O)N[C@@H](C)C(=O)NCC(=O)N[C@@H](CCCCN)C(=O)N[C@@H](Cc1ccc(O)cc1)C(=O)N[C@@H](Cc1c[nH]c2ccccc12)C(=O)N[C@H]1CSSC[C@@H](C(=O)N2CCC[C@H]2C(=O)N[C@@H](C)C(=O)N[C@@H](CC(N)=O)C(=O)N2CCC[C@H]2C(=O)NCC(=O)N2CCC[C@H]2C(=O)N[C@@H](CCC(=O)O)C(=O)NCC(=O)NCC(=O)NCC(=O)N[C@@H](CCCCN)C(N)=O)NC(=O)[C@H](C(C)C)NC(=O)CNC(=O)[C@H](Cc2c[nH]c3ccccc23)NC(=O)[C@H](CC(C)C)NC(=O)[C@H](CC(N)=O)NC1=O [DX395] | Kd (human plasma IgG4; [13]): > 10 µM; Kd (human plasma IgG2; [14]): > 10 µM; Kd (human plasma IgG2; [15]): > 10 µM; Kd (human plasma IgG2; [16]): > 10 µM; Kd (human plasma IgG2; [17]): > 10 µM; Kd (human plasma IgG2; [18]): > 10 µM; Kd (human plasma IgG2; [19]): > 10 µM; Kd (human plasma IgG2; [20]): > 10 µM
2 | 13% | 15% | 0% | 0% | 0% | 4% | 76% | 9% | > 10 µM | > 10 µM | 0.3 to 0.6 µM | 0.3 to 0.6 µM | > 10 µM | > 10 µM | > 10 µM | > 10 µM | > 10 µM | > 10 µM | > 10 µM | > 10 µM | CC[C@H](C)[C@@H]1NC(=O)[C@H](CCCCN)NC(=O)[C@@H](NC(=O)[C@H](Cc2c[nH]c3ccccc23)NC(=O)[C@H](Cc2ccc(O)cc2)NC(=O)[C@H](CO)NC(=O)CNC(=O)[C@H](C)NC(C)=O)CSSC[C@@H](C(=O)N2CCC[C@H]2C(=O)N[C@@H](CCC(N)=O)C(=O)N[C@@H](CO)C(=O)N2CCC[C@H]2C(=O)NCC(=O)N2CCC[C@H]2C(=O)N[C@@H](CCC(=O)O)C(=O)NCC(=O)NCC(=O)NCC(=O)N[C@@H](CCCCN)C(N)=O)NC(=O)[C@H](C(C)C)NC(=O)[C@H](CC(=O)O)NC(=O)[C@H](Cc2c[nH]c3ccccc23)NC1=O [DX392] (Ac-AGSYWCKIWDVCPQSPGPEGGGK-NH2; disulfide 6-12 (inferred)) | Kd (human plasma IgG3; 10 nM Tris-HCl, 500 mM Sodium Chloride, pH 7.5, read-out: KD (μM) IgG3 pH 7.5 + salt): > 10 µM; Kd (human plasma IgG4; [13]): > 10 µM; Kd (human plasma IgG2; [14]): > 10 µM; Kd (human plasma IgG2; [15]): > 10 µM; Kd (human plasma IgG2; [16]): > 10 µM; Kd (human plasma IgG2; [17]): > 10 µM; Kd (human plasma IgG2; [18]): > 10 µM; Kd (human plasma IgG2; [19]): > 10 µM; Kd (human plasma IgG2; [20]): > 10 µM

— patent US20030199671A1, “Binding molecules for Fc-region polypeptides” (priority 2001, published 2003)
